# Reference: patent publication US11351538B2, “Fluidic device and method of assembling same” (Northeastern University, priority 2017, dated 2022)
# Tested on: primary human intestinal epithelial monolayers
# Assay: Paracellular permeability measurement across primary organoid derived monolayers (bi-layer chips vs static inserts)
# Assay type: in vitro ADME
# Conditions: apical to basal, 5 days, p-value=0.0029
# Description: The apparent permeability coefficient for a 4.4 kDa, tetramethylrhodamine (TRITC) labeled dextran (cat no. T1037, Sigma-Aldrich) was determined by measuring transport across the Caco-2 cell monolayer. TEER values of cell monolayers were measured prior to the permeability assay and monolayers with TEER values below 165Ω×cm^2 were not used. For control Transwell cultures, 300 μL of 500 μM dextran in cell culture medium was applied to the apical compartment. 100 μL was immediately sampled from the apical compartment, transferred to a black, polystyrene, 96 well plate and stored in a 4° C. fridge. Transwells were maintained in a humidified, 37° C.+5% CO2 incubator. 100 μL aliquots were sampled from the basolateral compartment every 30 minutes over 3 hours and 100 μL of fresh medium preheated to 37° C. was added to replace the aliquoted volume. The fluorescence intensity of the collected basolateral samples was measured at 557 nm and 576 nm […] wavelengths, respectively. The actual dextran concentration was determined via a calibration curve. The apparent permeability coefficient was calculated as specified. […] The apparent permeability coefficient for Lucifer Yellow (cat no. L0259, Sigma-Aldrich) across primary organoid derived monolayers on static inserts and bi-layer chips was determined as described above. […]
substance,measurement,value
Lucifer Yellow,"apparent permeability, change between 5-day static and fluidic device models",significant increase
